Several values for one entry are separate records, joined by “and”; a condition that tells them apart may be missing. Equal values may be shown once.
Assays:
D(3) dopamine receptor = D(3) dopamine receptor (Homo sapiens, UniProt P35462); experiment: biochemical
Description: Displacement of [3H]spiperone from human D3 receptor expressed in CHO cells

D(2) dopamine receptor [1] = molecular target: T1, D(2) dopamine receptor (Homo sapiens, UniProt P14416); experiment: biochemical
Description: Displacement of [3H]spiperone from human D2 long receptor expressed in CHO cells

D(4) dopamine receptor = molecular target: T2, D(4) dopamine receptor (Homo sapiens, UniProt P21917); experiment: Displacement of [3H]spiperone from human D4 receptor expressed in CHO cells; type: cell-based
T2 sequence (P21917 whole entry): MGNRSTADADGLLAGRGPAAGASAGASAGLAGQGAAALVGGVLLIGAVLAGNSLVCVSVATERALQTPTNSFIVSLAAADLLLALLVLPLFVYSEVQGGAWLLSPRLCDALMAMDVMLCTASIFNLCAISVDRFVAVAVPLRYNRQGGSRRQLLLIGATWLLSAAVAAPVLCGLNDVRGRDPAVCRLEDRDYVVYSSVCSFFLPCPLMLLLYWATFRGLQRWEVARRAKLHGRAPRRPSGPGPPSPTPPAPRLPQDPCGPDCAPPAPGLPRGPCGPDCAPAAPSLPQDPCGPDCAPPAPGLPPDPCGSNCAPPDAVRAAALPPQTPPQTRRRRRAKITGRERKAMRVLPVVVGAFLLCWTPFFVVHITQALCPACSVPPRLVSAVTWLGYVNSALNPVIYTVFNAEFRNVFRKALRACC

D(2) dopamine receptor [2] = molecular target: T1, D(2) dopamine receptor; experiment: biochemical; remark: listed apart in the source
Description: Displacement of [3H]spiperone from human D2 short receptor expressed in CHO cells

T1 sequence (P14416 whole entry): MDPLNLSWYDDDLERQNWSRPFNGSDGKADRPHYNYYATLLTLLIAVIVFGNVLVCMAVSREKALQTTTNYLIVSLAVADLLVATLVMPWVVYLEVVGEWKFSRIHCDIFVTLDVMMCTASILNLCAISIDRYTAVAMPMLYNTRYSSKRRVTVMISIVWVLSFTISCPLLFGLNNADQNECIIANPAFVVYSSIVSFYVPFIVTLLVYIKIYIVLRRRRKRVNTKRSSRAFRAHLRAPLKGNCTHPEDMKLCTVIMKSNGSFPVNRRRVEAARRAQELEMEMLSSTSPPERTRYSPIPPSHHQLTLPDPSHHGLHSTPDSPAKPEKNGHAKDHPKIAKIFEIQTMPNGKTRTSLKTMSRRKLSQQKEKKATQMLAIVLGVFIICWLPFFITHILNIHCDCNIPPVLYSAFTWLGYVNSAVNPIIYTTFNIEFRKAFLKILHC
Sequence of D(3) dopamine receptor (P35462 whole entry): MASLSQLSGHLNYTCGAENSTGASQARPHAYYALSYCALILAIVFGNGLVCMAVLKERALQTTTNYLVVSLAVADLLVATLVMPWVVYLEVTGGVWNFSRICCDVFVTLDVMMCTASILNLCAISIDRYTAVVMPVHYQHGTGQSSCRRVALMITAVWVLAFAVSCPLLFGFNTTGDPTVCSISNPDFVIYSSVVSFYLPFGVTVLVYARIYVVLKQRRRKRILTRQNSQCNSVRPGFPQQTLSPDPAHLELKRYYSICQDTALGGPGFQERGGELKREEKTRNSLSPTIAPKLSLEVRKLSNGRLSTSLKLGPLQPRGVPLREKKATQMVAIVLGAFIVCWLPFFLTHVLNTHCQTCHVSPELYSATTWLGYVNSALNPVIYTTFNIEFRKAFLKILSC

Row | Compound | Ki (D(3) dopamine receptor) [nM] | Ki (D(2) dopamine receptor [1]) | Ki (D(4) dopamine receptor) | Ki (D(2) dopamine receptor [2])
1 | COc1ccccc1N1CCN(CCCCNC(=O)c2cc3c4ccc(c3o2)CCc2ccc(cc2)CC4)CC1 | 16 | 170 nM | 140 nM | –
2 | COc1c(Cl)cccc1N1CCN(CCCCNC(=O)c2cc3ccc2CCc2ccc(cc2)CC3)CC1 | 0.46 | 42 nM | 33 nM | 28 nM
3 | O=C(NCCCCN1CCN(c2cccc(Cl)c2Cl)CC1)c1cc2ccc1CCc1ccc(cc1)CC2 | 3.6 | 220 nM | 120 nM | 140 nM
4 | COc1ccccc1N1CCN(CCCCNC(=O)c2cc3ccc2CCc2ccc(cc2)CC3)CC1 | – | 15 nM and 11 nM | 5.4 nM and 9.5 nM | 13 nM and 5.6 nM
5 | O=C(NCCCCN1CCN(c2cccc(F)c2F)CC1)c1cc2ccc1CCc1ccc(cc1)CC2 | 1.9 | – | 18 nM | 35 nM
